Measured values taken from US20260000698A1 (priority 2022, published 2026).
Marks after values point to notes of the source that are not given here.

Assays:
SARS-CoV-2 Nsp14 MTase = SARS-CoV-2 Nsp14 MTase (Severe acute respiratory syndrome coronavirus 2, UniProt P0DTD1); assay: biochemical; type: biochemical
[1] = Plasma stability assay, human plasma; type: in vitro ADME
Description: Plasma stability assay. The plasma stability assay was performed in triplicate by incubating each selected compound (1 μmol/L final concentration) in normal mouse (CD-1) or human plasma (Innovative Research; Novi, MI, USA) diluted to 80% with 0.1 mol/L potassium phosphate buffer (pH 7.4) at 37° C. At 0, 1, 3, 6, and 24 h, a 50 μL aliquot of the plasma mixture was taken and quenched with 150 μL of acetonitrile containing 0.1% formic acid. The samples were then vortexed and centrifuged at 15,000 rpm (Eppendorf centrifuge 5424R; Enfield, CT, USA) for 5 min. The supernatants were collected and analyzed by LC-MS/MS to determine the in vitro plasma half-life (t1/2).

MLL1 Complex = biological target: T1, MLL1 Complex (Homo sapiens, UniProt Q03164); assay: Human MTase screening: MLL1 Complex; type: biochemical
T1 construct: purchased BPS Bioscience
Description: (§1) Assay conditions. The human methyltransferase inhibition assays were performed at BPS Bioscience (San Diego, CA, USA). All of the enzymatic reactions were conducted in duplicate at room temperature for 60-960 min in a 50 μL mixture containing proper methyltransferase assay buffer, S-adenosylmethionine (SAM), enzyme, and the test compound. These 50 μL reactions were carried out in wells of a substrate pre-coated plate. First, enzyme and inhibitor were added to assay wells and preincubated for 30 min at room temperature, then SAM was added to start the reaction. Final DMSO concentration was 1% in all reactions.
(§2) After enzymatic reactions, the reaction mixtures were discarded and each of the wells was washed three times with TBST buffer, and slowly shaken with Blocking Buffer for 10 min. Wells were emptied, and 100 μL of diluted primary antibody was added. The plate was then slowly shaken for 60 minutes at room temperature. […] Immediately, the luminescence of the samples was measured in a BioTek Synergy™ 2 (Winooski, VT, USA) microplate reader using Gen5 software.
(§3) Data analysis. […] The luminescence data/alpha counts were analyzed and compared. […] The percent activity in the presence of each compound was calculated according to the following equation: % activity=(C−C0)/(Ce−C0), where C=the luminescence/alpha counts in the presence of the compound.

METTL3/METTL14 = biological target: T2, METTL3/METTL14 (Homo sapiens, UniProt Q86U44); assay: Human MTase screening: METTL3/METTL14; type: biochemical
T2 construct: purchased BPS Bioscience
Description: as §1, §2, §3

EZH1 = biological target: T3, EZH1 (Homo sapiens, UniProt Q92800); assay: Human MTase screening: EZH1; type: biochemical
T3 construct: purchased BPS Bioscience
Description: as §1, §2, §3

panel of 10 human MTases = assay: Human MTase screening, whole panel; type: biochemical; settings: 10 μM
Description: To evaluate selectivity over human MTases, compound 3 was screened against a panel of 10 human MTases including histone lysine, protein arginine, DNA and RNA MTases. […] These preliminary results bolstered our premise that it was feasible to design selective Nsp14 MTase because of its unique structure in contrast to the canonical Rossmann fold.
as §1, with “First, enzyme and inhibitor were added to assay wells and preincubated for 30 min at room temperature, then SAM was added to start the reaction. Final DMSO concentration was 1% in all reactions.” left out
as §2, with “min.” for “min. Wells were emptied, and 100 μL of diluted primary antibody was added. The plate was then slowly shaken for 60 minutes at room temperature.”
as §3

T1 sequence (Q15291 whole entry): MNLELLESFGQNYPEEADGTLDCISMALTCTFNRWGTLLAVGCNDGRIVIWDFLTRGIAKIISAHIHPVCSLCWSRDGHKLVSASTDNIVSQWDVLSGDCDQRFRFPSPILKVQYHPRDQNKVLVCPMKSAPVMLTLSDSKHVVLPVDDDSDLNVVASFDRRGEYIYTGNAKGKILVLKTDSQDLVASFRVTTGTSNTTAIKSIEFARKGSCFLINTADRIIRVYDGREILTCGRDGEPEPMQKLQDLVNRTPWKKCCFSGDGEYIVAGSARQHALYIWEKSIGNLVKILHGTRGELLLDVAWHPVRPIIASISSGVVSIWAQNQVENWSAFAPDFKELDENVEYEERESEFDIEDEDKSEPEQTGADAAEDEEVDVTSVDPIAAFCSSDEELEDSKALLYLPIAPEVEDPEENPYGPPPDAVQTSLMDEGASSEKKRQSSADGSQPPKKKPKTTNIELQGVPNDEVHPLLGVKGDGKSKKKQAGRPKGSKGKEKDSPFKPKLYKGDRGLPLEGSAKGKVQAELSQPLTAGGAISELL
T1 sequence (Q9C005 whole entry, further chain): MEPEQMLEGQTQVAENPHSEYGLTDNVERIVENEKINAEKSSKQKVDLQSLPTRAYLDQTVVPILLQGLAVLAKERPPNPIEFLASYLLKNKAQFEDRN
T1 sequence (Q9UBL3 whole entry, further chain): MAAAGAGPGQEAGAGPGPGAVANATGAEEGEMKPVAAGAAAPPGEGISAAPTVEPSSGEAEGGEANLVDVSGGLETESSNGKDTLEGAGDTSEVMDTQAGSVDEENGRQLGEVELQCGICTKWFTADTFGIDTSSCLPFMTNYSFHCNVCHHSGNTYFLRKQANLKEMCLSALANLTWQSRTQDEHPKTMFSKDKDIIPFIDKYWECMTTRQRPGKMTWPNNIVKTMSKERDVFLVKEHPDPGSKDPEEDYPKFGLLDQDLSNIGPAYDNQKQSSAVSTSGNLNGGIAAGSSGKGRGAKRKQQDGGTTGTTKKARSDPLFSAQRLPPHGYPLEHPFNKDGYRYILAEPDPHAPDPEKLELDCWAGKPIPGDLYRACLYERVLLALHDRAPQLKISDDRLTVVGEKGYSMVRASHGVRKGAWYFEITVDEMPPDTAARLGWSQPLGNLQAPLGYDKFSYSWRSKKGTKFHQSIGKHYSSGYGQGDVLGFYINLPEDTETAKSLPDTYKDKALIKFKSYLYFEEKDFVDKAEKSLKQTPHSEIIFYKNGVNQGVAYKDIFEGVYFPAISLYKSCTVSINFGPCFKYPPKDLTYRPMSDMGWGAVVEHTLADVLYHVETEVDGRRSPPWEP
T1 sequence (Q03164 3745-3969): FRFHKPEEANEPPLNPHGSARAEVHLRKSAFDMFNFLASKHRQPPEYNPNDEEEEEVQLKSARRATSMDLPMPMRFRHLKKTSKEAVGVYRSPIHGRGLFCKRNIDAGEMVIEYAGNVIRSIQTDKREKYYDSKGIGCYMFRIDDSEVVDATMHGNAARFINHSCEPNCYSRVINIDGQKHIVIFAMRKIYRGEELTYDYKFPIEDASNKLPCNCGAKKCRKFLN
T2 sequence (Q86U44 whole entry): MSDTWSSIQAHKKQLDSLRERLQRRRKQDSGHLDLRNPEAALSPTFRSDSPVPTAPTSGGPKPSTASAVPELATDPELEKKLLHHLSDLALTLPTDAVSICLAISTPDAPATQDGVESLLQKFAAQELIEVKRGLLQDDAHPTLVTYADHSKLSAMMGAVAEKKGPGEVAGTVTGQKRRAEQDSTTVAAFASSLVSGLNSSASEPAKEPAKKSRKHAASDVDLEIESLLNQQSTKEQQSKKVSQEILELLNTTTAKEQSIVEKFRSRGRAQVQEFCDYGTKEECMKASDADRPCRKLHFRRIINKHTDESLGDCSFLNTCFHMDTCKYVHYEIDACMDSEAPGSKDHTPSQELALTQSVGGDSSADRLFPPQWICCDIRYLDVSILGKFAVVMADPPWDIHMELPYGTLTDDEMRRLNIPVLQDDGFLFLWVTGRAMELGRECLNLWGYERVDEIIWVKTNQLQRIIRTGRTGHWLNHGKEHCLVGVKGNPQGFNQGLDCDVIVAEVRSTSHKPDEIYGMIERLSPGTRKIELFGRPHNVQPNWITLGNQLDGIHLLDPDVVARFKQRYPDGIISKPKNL
T2 sequence (Q9HCE5 whole entry partner): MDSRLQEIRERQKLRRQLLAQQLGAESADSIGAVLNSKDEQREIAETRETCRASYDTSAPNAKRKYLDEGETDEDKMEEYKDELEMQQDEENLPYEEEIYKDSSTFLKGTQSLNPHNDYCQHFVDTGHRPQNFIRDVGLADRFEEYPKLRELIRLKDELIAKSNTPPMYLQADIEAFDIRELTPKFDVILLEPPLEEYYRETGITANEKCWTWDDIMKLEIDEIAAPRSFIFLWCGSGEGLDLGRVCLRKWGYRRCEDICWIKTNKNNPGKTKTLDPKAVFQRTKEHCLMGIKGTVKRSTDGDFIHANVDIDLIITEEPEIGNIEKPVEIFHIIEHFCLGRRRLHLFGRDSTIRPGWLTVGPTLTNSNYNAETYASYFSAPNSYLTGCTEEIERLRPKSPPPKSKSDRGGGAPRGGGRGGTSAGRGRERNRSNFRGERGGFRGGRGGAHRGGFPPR

Nc1ncnc2c1ncn2[C@@H]1O[C@H](CNS(=O)(=O)c2ccc3ccccc3c2)[C@@H](O)[C@H]1O [Compound 3, N-(((2R,3S,4R,5R)-5-(6-Amino-9H-purin-9-yl)-3,4-dihydroxytetrahydrofuran-2-yl)methyl)naphthalene-2-sulfonamide]
IC50 (SARS-CoV-2 Nsp14 MTase; LC-MS/MS assay, read-out: IC50): 61 nM
fold more active than compound 1 (SARS-CoV-2 Nsp14 MTase; MTase IC50 vs compound 1): > 150 fold
Plasma Stability t1/2, Human ([1]; human plasma, 37° C., n = 3): >24^d h
stability in human plasma ([1]; human, plasma): remarkably stable
inhibition at 10 µM (MLL1 Complex): 1%
inhibition at 10 µM (METTL3/METTL14): 10%
inhibition at 10 µM (EZH1): 2%
inhibition of a panel of 10 human MTases (panel of 10 human MTases): minimal inhibition
stability in mouse liver S9 fractions: resistant to phase I and II transformations
